Reference: PubChem BioAssay AID248 (DTP/NCI, 2004)
Where “and” joins values, the source holds several entries; their conditions need not be identical. Equal entries are not always repeated. Toxic doses and inconclusive results are not listed. Cut-off read from the data, not from the text of the source: active = T/C of 150% or more; inactive = T/C below 125%. Peptide text beside a SMILES is read from it.

System: L1210 leukemia ip in BDF1 mice, survival T/C
Assay: NCI In Vivo Anticancer Drug Screen. Data for tumor model L1210 Leukemia (intraperitoneal) in B6D2F1 (BDF1) mice
Settings: endpoint: mean survival time, higher = longer survival
Outline: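 Value reflects the ratio of survival in compound-treated mice to survival in vehicle-treated controls, with both groups carrying the same transplanted tumor.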

[1] = dose: 100.0 mg/kg/injection, schedule: Q01DX009 (ip), vehicle: saline
[2] = dose: 200.0 mg/kg/injection, schedule: Q01DX009 (ip), vehicle: saline
[3] = dose: 100.0 mg/kg/injection, schedule: Q01DX001 (ip), vehicle: saline
[4] = dose: 200.0 mg/kg/injection, schedule: Q01DX001 (ip), vehicle: saline
[5] = dose: 400.0 mg/kg/injection, schedule: Q01DX001 (ip), vehicle: saline
[6] = dose: 50.0 mg/kg/injection, schedule: Q01DX001 (ip), vehicle: saline
[7] = dose: 100.0 mg/kg/injection, schedule: Q01DX009 (ip), vehicle: Klucel (hydroxypropylcellulose) (HPC)
[8] = dose: 100.0 mg/kg/injection, schedule: Q04DX003 (ip), vehicle: Klucel (hydroxypropylcellulose) (HPC)
[9] = dose: 200.0 mg/kg/injection, schedule: Q01DX009 (ip), vehicle: Klucel (hydroxypropylcellulose) (HPC)
[10] = dose: 200.0 mg/kg/injection, schedule: Q04DX003 (ip), vehicle: Klucel (hydroxypropylcellulose) (HPC)
[11] = dose: 400.0 mg/kg/injection, schedule: Q01DX009 (ip), vehicle: Klucel (hydroxypropylcellulose) (HPC)
[12] = dose: 400.0 mg/kg/injection, schedule: Q04DX003 (ip), vehicle: Klucel (hydroxypropylcellulose) (HPC)
[13] = dose: 100.0 mg/kg/injection, schedule: Q01DX009 (ip), vehicle: saline with Tween-80
[14] = dose: 100.0 mg/kg/injection, schedule: Q04DX002 (ip), vehicle: saline with Tween-80
[15] = dose: 100.0 mg/kg/injection, schedule: Q04DX003 (ip), vehicle: saline with Tween-80
[16] = dose: 200.0 mg/kg/injection, schedule: Q01DX009 (ip), vehicle: saline with Tween-80
[17] = dose: 200.0 mg/kg/injection, schedule: Q04DX002 (ip), vehicle: saline with Tween-80
[18] = dose: 200.0 mg/kg/injection, schedule: Q04DX003 (ip), vehicle: saline with Tween-80
[19] = dose: 400.0 mg/kg/injection, schedule: Q01DX009 (ip), vehicle: saline with Tween-80
[20] = dose: 400.0 mg/kg/injection, schedule: Q04DX002 (ip), vehicle: saline with Tween-80
[21] = dose: 400.0 mg/kg/injection, schedule: Q04DX003 (ip), vehicle: saline with Tween-80
[22] = dose: 100.0 mg/kg/injection, schedule: Q01DX001 (ip), vehicle: other
[23] = dose: 25.0 mg/kg/injection, schedule: Q01DX009 (ip), vehicle: Klucel (hydroxypropylcellulose) (HPC)
[24] = dose: 25.0 mg/kg/injection, schedule: Q04DX003 (ip), vehicle: Klucel (hydroxypropylcellulose) (HPC)
[25] = dose: 50.0 mg/kg/injection, schedule: Q01DX009 (ip), vehicle: Klucel (hydroxypropylcellulose) (HPC)
[26] = dose: 50.0 mg/kg/injection, schedule: Q04DX003 (ip), vehicle: Klucel (hydroxypropylcellulose) (HPC)

Measured: T/C

COC(=O)C([CH2][Sn]([c]1ccccc1)([c]1ccccc1)[c]1ccccc1)NC(=O)Cc1ccccc1 (stereo not given)
inactive: dose: 50.0 mg/kg/injection, schedule: Q01DX009 (ip), vehicle: saline 96 % of control | [1] 100 % of control | [2] 100 % of control

O=C(Cc1ccccn1)NCC(O)c1ccccc1 (stereo not given)
inactive: [3] 110 % of control | [4] 91 % of control | [5] 93 % of control

CS(=O)(=O)OCC1CCCO1 (stereo not given)
inactive: [6] 107 % of control | [3] 98 % of control | [7] 98 % of control | [8] 108 % of control | [4] 98 % of control | [9] 111 % of control | [10] 103 % of control | [5] 101 % of control | [11] 93 % of control | [12] 104 % of control

Cc1c(Cl)cccc1NC(=O)Nc1cccc(C(F)(F)F)c1
inactive: dose: 100.0 mg/kg/injection, schedule: Q01DX001 (ip), vehicle: saline with Tween-80 87 % of control and 88 % of control | [13] 94 % of control and 104 % of control | [14] 93 % of control and 90 % of control | [15] 94 % of control | dose: 200.0 mg/kg/injection, schedule: Q01DX001 (ip), vehicle: saline with Tween-80 91 % of control | [16] 93 % of control and 97 % of control | [17] 88 % of control and 89 % of control | [18] 97 % of control | dose: 400.0 mg/kg/injection, schedule: Q01DX001 (ip), vehicle: saline with Tween-80 94 % of control and 89 % of control | [19] 100 % of control and 104 % of control | [20] 100 % of control and 90 % of control | [21] 96 % of control

NC(=O)CC(NC(=O)OCc1ccccc1)c1nn[nH]n1 (stereo not given)
inactive: [13] 104 % of control | [15] 91 % of control | [16] 106 % of control | [18] 102 % of control | [19] 98 % of control | [21] 91 % of control

CC1CC(C)(C)NC(=O)O1 (stereo not given)
inactive: dose: 25.0 mg/kg/injection, schedule: Q01DX009 (ip), vehicle: other 93 % of control | dose: 25.0 mg/kg/injection, schedule: Q04DX003 (ip), vehicle: other 90 % of control | dose: 50.0 mg/kg/injection, schedule: Q01DX009 (ip), vehicle: other 92 % of control | dose: 50.0 mg/kg/injection, schedule: Q04DX003 (ip), vehicle: other 89 % of control | [22] 103 % of control | dose: 100.0 mg/kg/injection, schedule: Q01DX009 (ip), vehicle: other 92 % of control | dose: 100.0 mg/kg/injection, schedule: Q04DX003 (ip), vehicle: other 90 % of control

Cc1cc(-c2nnc(-c3ccc(O)c(C)c3)nn2)ccc1O
inactive: [13] 94 % of control | [16] 94 % of control | [19] 91 % of control

CC(=O)NCC(C)(C)c1ccccc1
inactive: [3] 96 % of control | [1] 102 % of control | [4] 102 % of control | [2] 100 % of control | [5] 110 % of control | dose: 400.0 mg/kg/injection, schedule: Q01DX009 (ip), vehicle: saline 102 % of control

O=C(O)CCc1ccc(-c2cccc([N+](=O)[O-])c2)o1
inactive: [14] 102 % of control | [17] 105 % of control | [20] 98 % of control

CN(C)N=Nc1ccc2ncccc2c1[N+](=O)[O-]
inactive: [22] 105 % of control | dose: 200.0 mg/kg/injection, schedule: Q01DX001 (ip), vehicle: other 103 % of control

Cc1ccc(NC(=O)Nc2ccc(C)c(NC(=O)Nc3ccc(C)cc3C)c2)c(C)c1
inactive: [15] 90 % of control | [16] 103 % of control | [18] 95 % of control | [19] 109 % of control | [21] 93 % of control

CCC1CN2CCc3cc(OC)c(OC)cc3C2CC1CC1NCCc2cc(OC)c(OC)cc21 (stereo not given)
inactive: dose: 2.0 mg/kg/injection, schedule: Q04DX003 (ip), vehicle: water 93 % of control | dose: 4.0 mg/kg/injection, schedule: Q04DX003 (ip), vehicle: water 98 % of control | dose: 8.0 mg/kg/injection, schedule: Q04DX003 (ip), vehicle: water 94 % of control | dose: 16.0 mg/kg/injection, schedule: Q04DX003 (ip), vehicle: water 104 % of control | dose: 32.0 mg/kg/injection, schedule: Q04DX003 (ip), vehicle: water 102 % of control | dose: 64.0 mg/kg/injection, schedule: Q04DX003 (ip), vehicle: water 100 % of control

O=S(=O)(c1ccc(Cl)cc1)C(F)F
inactive: dose: 12.5 mg/kg/injection, schedule: Q01DX009 (ip), vehicle: Klucel (hydroxypropylcellulose) (HPC) 89 % of control | dose: 12.5 mg/kg/injection, schedule: Q04DX003 (ip), vehicle: Klucel (hydroxypropylcellulose) (HPC) 91 % of control | [23] 93 % of control | [24] 89 % of control | [25] 91 % of control | [26] 97 % of control

CCN(CCOC(=O)Nc1cc([N+](=O)[O-])ccc1C)c1ccccc1
inactive: dose: 100.0 mg/kg/injection, schedule: Q04DX002 (ip), vehicle: Klucel (hydroxypropylcellulose) (HPC) 87 % of control | dose: 200.0 mg/kg/injection, schedule: Q04DX002 (ip), vehicle: Klucel (hydroxypropylcellulose) (HPC) 94 % of control | dose: 400.0 mg/kg/injection, schedule: Q04DX002 (ip), vehicle: Klucel (hydroxypropylcellulose) (HPC) 90 % of control

NC(N)=NCCCC(N)C(=O)NC(CCC(=O)O)C(=O)O (stereo not drawn) (H-Arg-Glu-OH; configuration not given here)
inactive: dose: 25.0 mg/kg/injection, schedule: Q04DX002 (ip), vehicle: saline 98 % of control | dose: 50.0 mg/kg/injection, schedule: Q04DX002 (ip), vehicle: saline 121 % of control | dose: 100.0 mg/kg/injection, schedule: Q04DX002 (ip), vehicle: saline 110 % of control

N=C(N)c1cccc(CCCCc2ccc(N)cc2)c1
inactive: [8] 94 % of control | [10] 99 % of control

OC(CCCCC(O)(c1ccccc1)c1ccccc1)(c1ccccc1)c1ccccc1
inactive: [15] 89 % of control | [18] 94 % of control | [21] 96 % of control

CCNC(C)CC(C)C (stereo not given)
inactive: dose: 25.0 mg/kg/injection, schedule: Q01DX009 (ip), vehicle: saline with Tween-80 101 % of control | dose: 25.0 mg/kg/injection, schedule: Q04DX003 (ip), vehicle: saline with Tween-80 95 % of control | dose: 50.0 mg/kg/injection, schedule: Q01DX009 (ip), vehicle: saline with Tween-80 92 % of control | dose: 50.0 mg/kg/injection, schedule: Q04DX003 (ip), vehicle: saline with Tween-80 92 % of control | [13] 98 % of control | [15] 93 % of control and 96 % of control

c1ccc2cc(Sc3ncnc4nc[nH]c34)ccc2c1
inactive: [13] 97 % of control | [15] 105 % of control | [16] 103 % of control | [18] 98 % of control | [19] 97 % of control | [21] 98 % of control

CCOC(=O)C(C(=O)CC(C)C)C(C)C (stereo not given)
inactive: [6] 103 % of control | [3] 103 % of control | [4] 109 % of control | [5] 101 % of control

O=C1Nc2ccc(Cl)cc2C(c2ccccc2)=NC1O (stereo not given)
inactive: [23] 103 % of control | [24] 98 % of control | [25] 101 % of control | [26] 104 % of control | [7] 98 % of control | [8] 104 % of control | [9] 107 % of control | [10] 114 % of control | [11] 91 % of control | [12] 111 % of control

Cn1nc2c(c1-c1ccc(O)cc1)CCCc1ccccc1-2
inactive: [8] 100 % of control | [10] 98 % of control | [12] 98 % of control

Cc1ccc(C(=O)C=O)c(C)c1
inactive: [7] 96 % of control | [9] 105 % of control | [11] 109 % of control
